The results in this text go back to patent publication US20110230497A1, “BIOLOGICALLY ACTIVE AMIDES” (H. Lundbeck A/S, priority 2008, published 2011).

The target of one assay is T1, NPY Y5 receptor (Homo sapiens, UniProt Q15761).
T1 sequence (Q15761 1-445): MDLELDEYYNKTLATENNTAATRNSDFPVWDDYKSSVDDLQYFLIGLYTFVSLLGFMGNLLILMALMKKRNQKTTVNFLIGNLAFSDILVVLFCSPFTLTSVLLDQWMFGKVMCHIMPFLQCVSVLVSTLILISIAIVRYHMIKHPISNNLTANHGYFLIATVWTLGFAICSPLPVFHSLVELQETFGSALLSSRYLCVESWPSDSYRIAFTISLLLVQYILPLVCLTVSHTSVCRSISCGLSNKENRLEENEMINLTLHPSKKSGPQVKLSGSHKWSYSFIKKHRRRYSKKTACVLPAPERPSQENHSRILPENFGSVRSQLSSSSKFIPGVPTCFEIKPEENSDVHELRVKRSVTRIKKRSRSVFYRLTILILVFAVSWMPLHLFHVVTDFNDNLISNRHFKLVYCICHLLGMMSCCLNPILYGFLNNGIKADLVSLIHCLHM
Nature of the assay: Radioligand (125I-PYY) binding to membrane suspensions, cloned human NPY Y5 receptor. Also on record: expressed in transfected cells; host or cells: LM(tk-) cells (typically). The settings on record: 125I-PYY competition binding, membranes of transfected cells; read-out: Ki (nM), binding affinity of selected compounds. As to the method: The pharmacological properties of the compounds of the present invention were evaluated at the cloned human NPY Y5 receptor using the protocols disclosed in U.S. Pat. No. 6,124,331, the contents of which are hereby incorporated by reference, or in an assay as similarly described therein for NPY Y5 binding activity. The procedures for cell culture, transient transfection and membrane harvest, which are well known in the art, are described therein
Briefly, membrane suspensions from transfected cells (typically expressed in LM(tk-) cells) and ^125I-PYY radioligand (PerkinElmer, Waltham, Mass.) were diluted in binding buffer supplemented with 0.1% bovine serum albumin to yield an optimal membrane protein concentration so that ^125I-PYY bound by membranes in the assay was less than 10% of ^125I-PYY delivered to the sample (100,000 dpm/sample=0.08 nM for competition binding assays). Test compounds were diluted to desired concentrations with supplemented binding buffer in the presence of 30% DMSO. The binding assay was performed in 96-well polypropylene microtiter plates by mixing ^125I-PYY, test compound (25 μL), and finally, membrane suspensions (200 μL). Final DMSO=3%. Samples were incubated in at room temperature for about 120 min. Incubations were terminated by filtration over Whatman GF/C filters (pre-coated with 1% polyethyleneimine and air-dried before use), followed by washing with ice-cold binding buffer. Filter-trapped membranes were impregnated with MeltiLex solid scintillant (Wallac, Turku, Finland) and counted for ^125I-PYY in a Wallac MicroBeta Trilux. Non-specific binding was defined by 1000 nM porcine NPY. Specific binding was typically 80%; most non-specific binding was associated with the filter. Binding data were analyzed using nonlinear regression and statistical techniques available in the GraphPAD Prism package (San Diego, Calif.).
In the case of `CC(=O)N1CCC(CC(=O)Nc2ccc(-c3ccccc3)cc2)CC1` [Example 5a, 2-(1-Acetyl-piperidin-4-yl)-N-biphenyl-4-yl-acetamide], the Ki came to 120 nM. Same read-out and setting: for `CC(=O)N1CCC(C(C)(C)C(=O)Nc2ccc(-c3cc(F)cc(F)c3)cn2)CC1` [Example 4a, 2-(1-Acetyl-piperidin-4-yl)-N-[5-(3,5-difluoro-phenyl)-pyridin-2-yl]-isobutyramide] the value was 66 nM; for `CS(=O)(=O)N1CCC(CC(=O)Nc2ccc(-c3cc(F)cc(F)c3)nc2)CC1` [Example 2aj, N-[6-(3,5-Difluoro-phenyl)-pyridin-3-yl]-2-(1-methanesulfonyl-piperidin-4-yl)-acetamide], 28 nM; for `CC(=O)N1CCN(CC(=O)Nc2ccc(-c3cc(F)cc(F)c3)cn2)C[C@@H]1C` [Example 1e, 2-((S)-4-Acetyl-3-methyl-piperazin-1-yl)-N-[5-(3,5-difluoro-phenyl)-pyridin-2-yl]-acetamide], 120 nM.

As to `O=C(CC1CCN2C(=O)OCC2C1)Nc1cnc(-c2cc(F)cc(F)c2)cn1` (centres unmarked) [Example 3l, N-[5-(3,5-Difluoro-phenyl)-pyrazin-2-yl]-2-(3-oxo-hexahydro-oxazolo[3,4-a]pyridin-7-yl)-acetamide], the Ki was 25 nM. Same read-out and setting: the figure for `O=C(C[C@H]1CCN2C(=O)CC[C@H]2C1)Nc1ccc(-c2cc(F)cc(F)c2)cn1` [Example 3a] is 36 nM; for `CC(=O)N1CCN(CC(=O)Nc2ccc(-c3cc(F)cc(F)c3)cn2)CC1` [Example 1a, 2-(4-Acetyl-piperazin-1-yl)-N-[5-(3,5-difluoro-phenyl)-pyridin-2-yl]-acetamide] it is 220 nM; for `CC(=O)N1CCC(CC(=O)Nc2ccc(-c3cc(F)cc(F)c3)cn2)CC1` [Example 2a, 2-(1-Acetyl-piperidin-4-yl)-N-[5-(3,5-difluoro-phenyl)-pyridin-2-yl]-acetamide] it is 46 nM.

Take `O=C(C[C@H]1CCN2C(=O)OC[C@H]2C1)Nc1ccn(-c2ccc(Cl)cc2F)n1` [Example 3cc, N-[1-(4-Chloro-2-fluoro-phenyl)-1H-pyrazol-3-yl]-2-((7S,8aR)-3-oxo-hexahydro-oxazolo[3,4-a]pyridin-7-yl)-acetamide]: the inhibitory constant (Ki) was 8 nM.

Consider `Cn1nccc1C(=O)N1CCC(C(C)(C)C(=O)Nc2ccc(-c3cc(F)cc(F)c3)cn2)CC1` [Example 5q, N-[5-(3,5-Difluoro-phenyl)-pyridin-2-yl]-2-[1-(2-methyl-2H-pyrazole-3-carbonyl)-piperidin-4-yl]-isobutyramide], for which the Ki came to 570 nM. In the case of `O=C(c1ccccn1)N1CCC(C2(C(=O)Nc3ccc(-c4cc(F)cc(F)c4)cc3)CC2)CC1` [Example 5m], the Ki amounted to 14 nM.

In the case of `O=C(C1CCC1)N1CCC(C2(C(=O)Nc3ccc(-c4cc(F)cc(F)c4)cc3)CC2)CC1` [Example 5j], the Ki is 2.7 nM. On the same count and under the same terms, for `CC1(C)OC(=O)N2CCC(CC(=O)Nc3ccn(-c4ccccc4F)n3)CC21` (centres unmarked) [Example 3i, 2-(1,1-Dimethyl-3-oxo-hexahydro-oxazolo[3,4-a]pyridin-7-yl)-N-[1-(2-fluoro-phenyl)-1H-pyrazol-3-yl]-acetamide] the value was 50 nM. Same read-out and setting: for `O=C(C[C@H]1CCN2C(=O)OC[C@H]2C1)Nc1cc(-c2cccc(C(F)(F)F)c2)no1` [Example 3hh, 2-((7S,8aR)-3-oxo-hexahydro-oxazolo[3,4-a]pyridin-7-yl)-N-[3-(3-trifluoromethyl-phenyl)-isoxazol-5-yl]-acetamide] the value was 39 nM; for `O=C(C[C@H]1CCN2C(=O)OC[C@H]2C1)Nc1ccc(-c2cc(F)cc(F)c2)cn1` [Example 3o, N-[5-(3,5-Difluoro-phenyl)-pyridin-2-yl]-2-((7S,8aR)-3-oxo-hexahydro-oxazolo[3,4-a]pyridin-7-yl)-acetamide], 17 nM.

A further assay deals with T1, NPY Y5 receptor. The experiment in a line: NPY Y5-dependent inhibition of forskolin-stimulated cAMP accumulation. Details: expressed in transfected cells. The settings on record: effect on agonist (NPY) activity, cAMP HTRF. The class given is cell-based. How it is done: Stably transfected cells were seeded into 96-well microtiter plates and cultured until confluent. To reduce the potential for receptor desensitization, the serum component of the media was reduced to 1.5% for 4 to 16 hours before the assay. Cells were washed in […], or HBS (150 mM NaCl, 20 mM HEPES, 1 mM CaCl2, 5 mM KCl, 1 mM MgCl2, and 10 mM glucose) supplemented with 0.1% bovine serum albumin plus 100 uM IBMX. Test compounds were diluted to desired concentrations with assay buffer in the presence of 10% DMSO, then transferred to the cell plate and allowed to incubate for 20 min at 37° C. in 5% CO2 (final DMSO=1%). Cells were then stimulated with NPY (up to 10 uM) for a period of 5 min, followed by forskolin (10 uM) for another 5 min. The assay was then terminated and intracellular cAMP was quantified by with highthroughput time-resolved fluorometry (HTRF kit from CisBio, Bedford, Mass.). The effect of the test compound on agonist (NPY) activity were analyzed using nonlinear regression and statistical techniques available in the GraphPAD Prism package (San Diego, Calif.).
For the compound `CC(=O)N1CCC(C(C)(C)C(=O)Nc2ccc(-c3cc(F)cc(F)c3)cn2)CC1` [Example 4a, 2-(1-Acetyl-piperidin-4-yl)-N-[5-(3,5-difluoro-phenyl)-pyridin-2-yl]-isobutyramide], the “function at the NPY Y5 receptor” value was “antagonists”.

For `CC(=O)N1CCC(CC(=O)Nc2ccc(-c3cc(F)cc(F)c3)cn2)CC1` [Example 2a, 2-(1-Acetyl-piperidin-4-yl)-N-[5-(3,5-difluoro-phenyl)-pyridin-2-yl]-acetamide], the “function at the NPY Y5 receptor” value is “antagonists”.
